In ChEMBL document CHEMBL6078665, “Structural optimization of naturally derived Ar-turmerone, as novel neuroinflammation suppressors effective in an Alzheimer mouse model” (Bioorg Med Chem, 2025):
Active and inactive are the calls of the source. No cut-off for these calls is given here.

Legend:
[1] = tested on: BV-2; assay: Anti-inflammatory activity against LPS-induced mouse BV-2 cells assessed as inhibition rate of LPS-induced IL-1beta production pretreated for 1 hr followed by challenged with LPS and measured after 24 hrs incubation by ELISA assay; type: functional, cell-based
[2] = tested on: BV-2; assay: Anti-inflammatory activity against LPS-induced mouse BV-2 cells assessed as inhibition rate of LPS-induced NO production pretreated for 1 hr followed by challenged with LPS and measured after 24 hrs incubation by Griess assay; type: functional, cell-based
[3] = tested on: BV-2; assay: Anti-inflammatory activity against LPS-induced mouse BV-2 cells assessed as inhibition rate of LPS-induced […] production at 80 uM pretreated for 1 hr followed by challenged with LPS and measured after 24 hrs incubation by Griess assay; type: functional; conditions: time 25 hrs
[4] = tested on: BV-2; assay: Anti-inflammatory activity against LPS-induced mouse BV-2 cells assessed as inhibition rate of LPS-induced TNFalpha production pretreated for 1 hr followed by challenged with LPS and measured after 24 hrs incubation by ELISA assay; type: functional, cell-based
[5] = (§1) Cytotoxicity against LPS-induced mouse BV-2 cells assessed as cell survival at 80 uM measured after 24 hrs incubation by MTT assay; type: toxicity, cell-based; conditions: LPS-induced BV-2 cells, read-out: Survival
[6] = tested on: BV-2; assay: as §1; type: toxicity, cell-based; conditions: bv-2, 24 h, 80 µM
[7] = tested on: Mus musculus; assay: Anti-neuroinflammatory activity against LPS-induced C57BL/6 mouse model assessed as reversal of LPS-induced IL-1 beta increase in hippocampal homogenate at 100 mg/kg, po measured up to 5 days by ELISA kit; type: functional, organism-based; conditions: time <= 5.0 day
[8] = tested on: Mus musculus; assay: Anti-neuroinflammatory activity against LPS-induced C57BL/6 mouse model assessed as reversal of LPS-induced TNFalpha increase in hippocampal homogenate at 100 mg/kg, po measured up to 5 days by ELISA kit; type: functional, organism-based; conditions: time <= 5.0 day
[9] = tested on: Mus musculus; assay: Anti-neuroinflammatory activity against LPS-induced neuronal damage C57BL/6 mouse model assessed as restoration of number of normal neuronal cells in cortex at 100 mg/kg, po measured up to 5 days by Nissl staining based assay; type: functional, organism-based; conditions: time <= 5.0 day
[10] = tested on: Mus musculus; assay: Anti-neuroinflammatory activity against LPS-induced neuronal damage C57BL/6 mouse model assessed as restoration of number of normal neuronal cells in hippocampus at 100 mg/kg, po measured up to 5 days by Nissl staining based assay; type: functional, organism-based; conditions: time <= 5.0 day
[11] = tested on: Mus musculus; assay: Anti-neuroinflammatory activity against LPS-induced spatial learning in C57BL/6 mouse model assessed as swimming pathway at 100 mg/kg, po measured up to 5 days by Morris water maze test; type: functional, organism-based; conditions: time <= 5.0 day
[12] = tested on: Mus musculus; assay: Anti-neuroinflammatory activity against LPS-induced spatial learning loss in C57BL/6 mouse model assessed as shortening of escape latency at 100 mg/kg, po measured up to 5 days by Morris water maze test; type: functional, organism-based; conditions: time <= 5.0 day
[13] = tested on: Mus musculus; assay: Anti-neuroinflammatory activity against LPS-induced reference memory loss in C57BL/6 mouse model assessed as increase in number of times cross the target quadrant at 100 mg/kg, po measured up to 5 days by reference memory (probe trial) test; type: functional, organism-based; conditions: time <= 5.0 day
[14] = tested on: Mus musculus; assay: Anti-neuroinflammatory activity against LPS-induced reference memory loss in C57BL/6 mouse model assessed as increase in time spent in target quadrant at 100 mg/kg, po measured up to 5 days by reference memory (probe trial) test; type: functional, organism-based; conditions: time <= 5.0 day
[15] = tested on: Mus musculus; assay: Anti-neuroinflammatory activity against LPS-induced C57BL/6 mouse model assessed as reversal of LPS-induced TNFalpha increase in cortex at 100 mg/kg, po measured up to 5 days by ELISA kit; type: functional, organism-based; conditions: time <= 5.0 day
[16] = tested on: Mus musculus; assay: Anti-neuroinflammatory activity against LPS-induced C57BL/6 mouse model assessed as reversal of LPS-induced IL-1 beta increase in cortex at 100 mg/kg, po measured up to 5 days by ELISA kit; type: functional, organism-based; conditions: time <= 5.0 day

CC(C)=CC(=O)CC(C)c1ccc(C)cc1 (racemic)
IC50 [1]: 19.7 µM
IC50 [2]: 30.2 µM
inhibition at 80 µM [3]: 81.5%
IC50 [4]: 42.5 µM
viability at 24 h, 80 µM [5]: > 80%

CC(C)=CC(=O)CC(c1ccc(-c2ccccc2)cc1)C(C)C (centres undefined)
IC50 [1]: 56.2 µM
IC50 [2]: 26.6 µM
inhibition at 80 µM [3]: 69.7%
IC50 [4]: 51.4 µM
Activity [6]: Non-toxic

CCCc1ccc(CNC(=O)C=C(C)C)cc1
IC50 [1]: 43.9 µM
IC50 [2]: 49.4 µM
inhibition at 80 µM [3]: 59.8%
IC50 [4]: 53.6 µM
viability at 24 h, 80 µM [5]: > 80%

CC(C)=CC(=O)CC(C)c1ccccc1Cl (centres undefined)
inhibition at 80 µM [3]: 47.7%
viability at 24 h, 80 µM [5]: > 80%

CC(C)=CC(=O)OC(C)c1ccc(-c2ccccc2)cc1 (centres undefined)
inhibition at 80 µM [3]: 44.5%
viability at 24 h, 80 µM [5]: > 80%

CC(C)=CC(=O)C[C@H](C)c1ccc(C)cc1
Activity [7]: Active
Activity [8]: Active
IC50 [1]: 18.5 µM
Activity [9]: Active
IC50 [2]: 25.4 µM
Activity [10]: Active
IC50 [4]: 39.9 µM
viability at 24 h, 80 µM [5]: > 80%

CC(C)=CC(=O)OC(C)c1ccc(C)cc1 (centres undefined)
Activity [7]: Active
Activity [11]: Active
Activity [8]: Active
IC50 [1]: 34 µM
IC50 [2]: 42.5 µM
inhibition at 80 µM [3]: 64.5%
Activity [12]: Active
IC50 [4]: 28.5 µM
viability at 24 h, 80 µM [5]: > 80%

CC(C)=CC(=O)NC(C)c1ccc(Cl)cc1 (centres undefined)
inhibition at 80 µM [3]: 38%
viability at 24 h, 80 µM [5]: > 80%

CC(C)=CC(=O)CC(c1ccc(F)cc1)c1ccc(C(F)(F)F)cc1 (centres undefined)
inhibition at 80 µM [3]: 19.1%
viability at 24 h, 80 µM [5]: > 80%

CC(C)=CC(=O)OC(C)c1ccc(C(F)(F)F)cc1 (centres undefined)
inhibition at 80 µM [3]: 28.2%
viability at 24 h, 80 µM [5]: > 80%

CC(C)=CC(=O)NC(C)c1ccccc1 (centres undefined)
inhibition at 80 µM [3]: 22.3%

CCCC(OC(=O)C=C(C)C)c1ccc(-c2ccccc2)cc1 (centres undefined)
inhibition at 80 µM [3]: 14.9%
viability at 24 h, 80 µM [5]: > 80%

CCCCc1nc(-c2ccc(OCCCN(CC)CC)cc2)cn1-c1ccc(Oc2ccc(Cl)cc2)cc1
Activity [7]: Active
Activity [8]: Active
Activity [13]: Active
Activity [14]: Active

CC(C)=CC(=O)NC(C)c1ccc2ccccc2c1 (centres undefined)
Activity [7]: Active
Activity [11]: Active
Activity [8]: Active
IC50 [1]: 32.5 µM
Activity [13]: Active
Activity [9]: Active; Compound Exhibited Superior Effect Compared To Ar-Turmerone And Ttp488
Activity [14]: Active
Activity [15]: Active
Activity [16]: Active
IC50 [2]: 44.2 µM
inhibition at 80 µM [3]: 60.1%
Activity [10]: Active; Compound Exhibited Superior Effect Compared To Ar-Turmerone And Ttp488
Activity [12]: Active
IC50 [4]: 24.5 µM
viability at 24 h, 80 µM [5]: > 80%

CC(C)=CC(=O)CC(c1ccc(F)cc1)c1ccc(-c2ccccc2)cc1 (centres undefined)
inhibition at 80 µM [3]: 29.3%
Activity [6]: Non-toxic

CC(C)=CC(=O)NC(C)c1ccc(-c2ccccc2)cc1 (centres undefined)
inhibition at 80 µM [3]: 16.9%
Activity [6]: Non-toxic

CC(C)=CC(=O)OC(C)c1ccc2ccccc2c1 (centres undefined)
inhibition at 80 µM [3]: 7.97%
viability at 24 h, 80 µM [5]: > 80%

CC(C)=CC(=O)CC(C)c1ccc(C(F)(F)F)cc1 (centres undefined)
inhibition at 80 µM [3]: 26.8%
viability at 24 h, 80 µM [5]: > 80%

CC(C)=CC(=O)OC(C)c1ccc(Cl)cc1 (centres undefined)
inhibition at 80 µM [3]: 15.8%
viability at 24 h, 80 µM [5]: > 80%

CC(C)=CC(=O)CC(c1ccc(C)cc1)C(C)C (centres undefined)
IC50 [1]: 42.4 µM
IC50 [2]: 30.9 µM
inhibition at 80 µM [3]: 71%
IC50 [4]: 46.5 µM
viability at 24 h, 80 µM [5]: > 80%

CC(C)=CC(=O)CC(c1ccc(C)cc1)c1ccc(F)cc1 (centres undefined)
inhibition at 80 µM [3]: 8.15%
viability at 24 h, 80 µM [5]: > 80%

CC(C)=CC(=O)NC(C)c1ccc(C)cc1 (centres undefined)
Activity [7]: Active
Activity [11]: Active
Activity [8]: Active
IC50 [1]: 14 µM
Activity [15]: Active
Activity [16]: Active
IC50 [2]: 17.3 µM
inhibition at 80 µM [3]: 79.8%
Activity [12]: Active
IC50 [4]: 27.5 µM
viability at 24 h, 80 µM [5]: > 80%

CC(C)=CC(=O)OC(C)c1ccccc1 (centres undefined)
inhibition at 80 µM [3]: 24.9%

CC(C)=CC(=O)NC(c1ccccc1)c1ccc(C)cc1 (centres undefined)
Activity [7]: Active; Compound Exhibited Superior Effect Compared To Ar-Turmerone
Activity [11]: Active
Activity [8]: Active; Compound Exhibited Superior Effect Compared To Ar-Turmerone
IC50 [1]: 54.1 µM
IC50 [2]: 30.4 µM
inhibition at 80 µM [3]: 71%
Activity [12]: Active
IC50 [4]: 50.3 µM
viability at 24 h, 80 µM [5]: > 80%

CC(C)=CC(=O)C[C@@H](C)c1ccc(C)cc1
IC50 [1]: 23.1 µM
IC50 [2]: 29.1 µM
IC50 [4]: 40.9 µM

CC(C)=CC(=O)CC(C)c1ccc(-c2ccccc2)cc1 (centres undefined)
inhibition at 80 µM [3]: 18.9%
Activity [6]: Non-toxic

CC(C)=CC(=O)NC(C)c1ccc(C(F)(F)F)cc1 (centres undefined)
inhibition at 80 µM [3]: 28%
viability at 24 h, 80 µM [5]: > 80%
